Assay results taken from US20260212886A1, “MAGNETIC RECORDING MEDIUM AND CARTRIDGE” (Sony Group Corporation, priority 2023, published 2026).

Assay: Acid dissociation constant (pKa) by potentiometric titration (JIS K 0070:1992)
Description: The acid dissociation constant (pKa) is a parameter indicating the degree of dissociation of an acid. When the ionization constant of an acid is Ka, the acid dissociation constant is defined by pKa=−log10 Ka.
In the case of `O=P(O)(O)c1ccccc1` [Phenylphosphonic acid], the pKa is reported as ≤ 5. With `O=C(O)c1ccc(O)cc1` [4-hydroxybenzoic acid] the pKa was ≤ 5. With `O=C(O)c1cccc(C(=O)O)c1` [Isophthalic acid, isophthalic acid] the pKa was ≤ 5. For `O=C(O)CC(O)(CC(=O)O)C(=O)O` [Citric acid, citric acid], the pKa was ≤ 5.
